The format of series [1] is physicochemical, horse. Here is the method:
(§1) This example illustrates the suitability of non-human blood sources for a composition of the invention. In this example both sheep blood (non-lysed as in Example 1 above and containing the anti-coagulant citrate) and horse blood (lysed by freeze-thaw cycles as in Example 2 above and containing the anti-coagulant EDTA) were utilized. FK506 standards were made in each matrix and stability was evaluated at 37 degrees Celsius as described above.

Series [2] is classed as physicochemical, human. Here is the method: This example illustrates the utilization of blood cell fragments according to the invention to stabilize FK506 in an aqueous matrix. Human blood cells were lysed by sonication or by repetitive freeze-thaw cycles respectively. Lysis was judged complete by the absence of blood cells under microscopic examination. Except for the utilization of lysed human blood cells instead of whole blood cells, the FK506 standards were prepared in the same manner as in Example 1 above.

The format of series [3] is physicochemical. The text has this: The stability of the composition can be determined by measuring the decrease in the measured amount of FK506 in the aqueous composition with time. […] In a composition of the invention useful as a standard for a diagnostic assay, generally the amount of FK506 initially present in the aqueous composition maintained at a temperature of 37 degrees Celsius will decrease over a period of 7 days by less than 20 percent by weight, and typically by less than 5 percent by weight

The format of series [4] is physicochemical. Here is the method:
FK506 was spiked into plasma and serum and the stability at 37 degrees Celsius was evaluated as for human blood and the synthetic matrix above. The plasma contained sufficient EDTA as anti-coagulant to prevent coagulation.
Comparative plasma and serum matrices were prepared by adding a stock standard of FK506 in methanol (10 micrograms FK506/ml) to the plasma and serum matrices to provide two initial concentrations of 41.8 ng/ml (high) and 18.4 ng/ml (low) for the plasma and two initial concentrations of 44.9 ng/ml (high) and 22.4 ng/ml (low) for the serum. As for the human blood and synthetic matrix above, the stability of these two different matrices was evaluated by placing the four different standards at 37 degrees Celsius and determining the concentration of FK506 present as a function of time.
The source holds these as a separate data set.

In series [5] the test system is monoclonal antibody directed against FK506 (Fujisawa clone #1-60-46). Briefly: Microparticle capture enzyme immunoassay (MEIA) for FK506, competitive with FK506-alkaline phosphatase conjugate. Format: binding. The settings on record: pH 6.0. Here is the method: In general an analyte such as FK506 is determined in an MEIA by quantifying the rate of fluorescence development when a fluorogenic substrate is converted by the action of an enzyme-labeled conjugate. MEIAs as run on the IMx® analyzer generally utilize a reagent pack containing microparticle reagent, an alkaline phosphatase conjugate, fluorogenic substrate and, optionally, a diluent buffer specific for the FK506 assay. Submicron microparticles coated with a capture molecule specific for FK506 being measured are used as the solid phase. […] The effective surface area of these polystyrene latex microparticles, which number in the millions, is several-fold greater than that of a 1/4 inch diameter polystyrene bead commonly used in other commercial immunoassays. Because of this large surface area and the very small diffusion distance between analyte and the capture molecules on the surface of the microparticles, the capture phase of the MEIA typically reaches equilibrium within several minutes, allowing excellent throughput.
Unlike homogeneous fluorescent polarization immunoassays, the heterogeneous MEIA requires a separation step. After incubation of the microparticles with specimen, the microparticles are separated from the reaction mixture by transferring it to an inert glass fiber matrix in the MEIA reaction cell. This glass fiber surface provides a precisely located mechanical support for the microparticles during the subsequent optical read phase of the assay. The microparticles and bound analyte adhere strongly to the glass fibers, while the remaining specimen components are washed through the pores of the matrix to an underlying absorbent blotter. Detection of the immune complex on the glass fiber matrix is accomplished using an alkaline phosphatase-labeled conjugate. Conjugate is either incubated with the specimen and microparticles in a typical one step IMx® MEIA or applied to the matrix after the initial wash step. It is contemplated that an MEIA for FK506 run on the IMx® analyzer can be configured either in a "sandwich" or competitive assay format. […]
In either configuration, the specifically bound alkaline phosphatase on the microparticles is detected by addition of a fluorogenic substrate, typically 4-methylumbelliferyl phosphate (4-MUP), to the matrix. […] The liberated 4-MU is detected by the IMx® MEIA optics assembly, a front surface fluorometer designed to detect fluorescence of low concentrations of 4-MU without interference by fluorescence of 4-MUP at 367 nanometers (nm). A system of lenses and optical filters focuses filtered light (365 nm wavelength) from a mercury arc lamp onto the surface of the matrix and focuses emitted fluorescence from 4-MU (448 nm wavelength) onto a photomultiplier tube. About 5% of the excitation light is detected by a photodiode, allowing normalization of the fluorescence data and generation of a control signal used by the lamp power supply to maintain the intensity of the excitation light within 5% over the useful life of the lamp. The instrument then uses linear regression analysis to convert the data from 8 successive determinations of 4-MU fluorescence to a rate, which rate is proportional to the concentration of alkaline phosphatase conjugate specifically bound to the microparticles, from which the concentration of FK506 in the sample can be determined. […]

Series [6] is classed as physicochemical, human. Here is the method: This example illustrates the preparation of an aqueous composition of the invention utilizing whole human blood containing the anticoagulant, ethylenediamine tetraacetic acid (EDTA). It also illustrates a comparison of the stability of FK506 in the aqueous composition of the invention with the stability of FK506 in a synthetic blood matrix (prepared by adding hemoglobin to human serum) and with the stability of FK506 in plasma and serum
A synthetic blood matrix was prepared by adding hemoglobin (10 grams/deciliter) to human serum. A stock standard of FK506 in methanol (10 micrograms FK506/ml) was spiked into this synthetic matrix to provide two initial concentrations of 32.2 nanograms FK506/ml (ng/ml)(high) and 7.5 ng/ml (low). A composition of the invention was prepared by adding the stock standard of FK506 in methanol (10 micrograms FK506/ml) into human whole blood (containing sufficient EDTA to prevent coagulation ) to provide two initial concentrations of 47.1 ng/ml (high) and 9.3 ng/ml (low). The stability of these two different matrices was evaluated by placing the four different standards at 37 degrees Celsius and determining the concentration of FK506 present as a function of time.
This is another data set of the same source.

The format of series [7] is physicochemical, human. The text has this: This example illustrates the utilization of human packed red blood cells (with EDTA as anticoagulant) and saline in an aqueous, FK506-containing composition of the invention. It also illustrates the enhanced stability of FK506 in this composition of the invention compared to the stability of FK506 in comparative serum and plasma compositions.
Human packed red blood cells (with sufficient EDTA added to prevent coagulation) were mixed in equal parts by volume with saline (0.9 percent by weight sodium chloride solution), human plasma or human serum. Three freeze-thaw cycles were done on each matrix combination to lyse the cells. The pH on each matrix was adjusted to pH 6.0 with 3 Molar (M) citric acid. FK506 standards were made in each matrix and stability at […] was evaluated as described above.
The source holds these as a separate data set.

Series [8] is classed as physicochemical, sheep. Here is the method:
as §1

Series [9] is classed as physicochemical. An excerpt: Whole blood has the undesirable characteristic of thickening at elevated temperatures. Thickened blood can be difficult or impossible to pipet which can make a blood matrix completely unsuitable as a standard for a diagnostic assay.
Whole blood (plus sufficient EDTA to prevent coagulation) was lysed by freeze-thaw cycles and diluted with saline so as to be at final saline concentrations of 10, 20 and 30 percent by volume. FK506 in methanol was spiked into the matrix to make standards and the stability was evaluated at 37 degrees Celsius as described above.
This is another data set of the same source.

Where [10] appears, read: aqueous blood cell composition, 168 h.

Structures are written as SMILES.

For `C=CC[C@@H]1/C=C(\C)C[C@H](C)C[C@H](OC)[C@H]2O[C@@](O)(C(=O)C(=O)N3CCCC[C@H]3C(=O)O[C@H](/C(C)=C/[C@@H]3CC[C@@H](O)[C@H](OC)C3)[C@H](C)[C@@H](O)CC1=O)[C@H](C)C[C@@H]2OC` [FK506], the “stability in horse blood” value in series [1] was “excellent stability”. Moreover, the “stability in lysed blood” value in series [2] was “more stable at 45 degrees Celsius than FK506 standards in serum, plasma or synthetic blood at 37 degrees Celsius”. Further, the “stability at acidic pH” value in [3] was “enhanced somewhat at acidic pH”. Moreover, the “stability in aqueous matrices” value in [3] is “unstable”. For the same compound, the “decrease of the amount of FK506 initially present, generally” value in series [3] (setting [10]) is “less than 20 percent by weight”. Moreover, the “decrease of the amount of FK506 initially present, typically” value in [3] (setting [10]) is “less than 5 percent by weight”. The “stability in plasma” value in series [4] was “very unstable in plasma and serum”. The “stability in serum” value in [4] is “very unstable in plasma and serum”. The “Fluorescent Rate” value in series [5] (10 ng/ml FK506 in lysed human whole blood) is given as 288; in [5] (20 ng/ml FK506 in lysed human whole blood) it was 197; in series [5] (30 ng/ml FK506 in lysed human whole blood) it was 150; in [5] (50 ng/ml FK506 in lysed human whole blood), 111; in series [5] (80 ng/ml FK506 in lysed human whole blood) it was 79. Further, the “stability in blood vs synthetic matrix” value in series [6] is recorded as “much more stable in blood than in the synthetic matrix”. Besides, the “stability in packed red cell matrices” value in [7] is recorded as “more stable in any of them relative to serum, plasma or synthetic blood matrices”. Further, the “most stable matrix” value in series [7] (saline vs plasma or serum dilution, 45 degrees Celsius) was “the most stable matrix was blood diluted with saline”. Besides, in [8], the “stability in sheep blood” value is listed as “excellent stability”. In series [9], the “stability in saline-diluted lysed blood” value is “good stability”.

The record behind these values is patent US5338684A, “Stable aqueous FK506 standards” (Abbott Laboratories, priority 1993, dated 1994).
